Experimental data reported in PubChem BioAssay AID248 (DTP/NCI, 2004).
“And” between values parts separate entries of the source, which are not always exact repeats. Identical values can stand only once. Toxic doses and inconclusive results are not listed.

System: L1210 leukemia ip in BDF1 mice, survival T/C
Test: NCI In Vivo Anticancer Drug Screen. Data for tumor model L1210 Leukemia (intraperitoneal) in B6D2F1 (BDF1) mice
Conditions: higher = longer survival
Procedure, shortened: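 Antitumor effect is assessed in tumor-bearing animals. Survival in the compound arm is compared with a vehicle-dosed control arm and expressed as their quotient.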

[1] = endpoint: mean survival time, dose: 100.0 mg/kg/injection, schedule: Q01DX001 (ip), vehicle: saline
[2] = endpoint: mean survival time, dose: 200.0 mg/kg/injection, schedule: Q01DX001 (ip), vehicle: saline
[3] = endpoint: mean survival time, dose: 100.0 mg/kg/injection, schedule: Q04DX003 (ip), vehicle: Klucel (hydroxypropylcellulose) (HPC)
[4] = endpoint: mean survival time, dose: 200.0 mg/kg/injection, schedule: Q04DX003 (ip), vehicle: Klucel (hydroxypropylcellulose) (HPC)
[5] = endpoint: mean survival time, dose: 400.0 mg/kg/injection, schedule: Q04DX003 (ip), vehicle: Klucel (hydroxypropylcellulose) (HPC)
[6] = endpoint: mean survival time, dose: 100.0 mg/kg/injection, schedule: Q04DX002 (ip), vehicle: saline with Tween-80
[7] = endpoint: mean survival time, dose: 400.0 mg/kg/injection, schedule: Q04DX002 (ip), vehicle: saline with Tween-80
[8] = endpoint: mean survival time, dose: 100.0 mg/kg/injection, schedule: Q01DX001 (ip), vehicle: carboxymethylcellulose (CMC)
[9] = endpoint: mean survival time, dose: 200.0 mg/kg/injection, schedule: Q01DX001 (ip), vehicle: carboxymethylcellulose (CMC)
[10] = endpoint: mean survival time, dose: 400.0 mg/kg/injection, schedule: Q01DX001 (ip), vehicle: carboxymethylcellulose (CMC)
[11] = endpoint: mean survival time, dose: 100.0 mg/kg/injection, schedule: Q01DX009 (ip), vehicle: Klucel (hydroxypropylcellulose) (HPC)
[12] = endpoint: mean survival time, dose: 200.0 mg/kg/injection, schedule: Q01DX009 (ip), vehicle: Klucel (hydroxypropylcellulose) (HPC)
[13] = endpoint: mean survival time, dose: 400.0 mg/kg/injection, schedule: Q01DX009 (ip), vehicle: Klucel (hydroxypropylcellulose) (HPC)

`CCCC[S][Sn-]([CH2]CCC)([CH2]CCC)[CH2]CCC` was tested, and the T/C (endpoint: mean survival time, dose: 6.25 mg/kg/injection, schedule: Q04DX003 (ip), vehicle: saline with Tween-80) was 101 % of control, the T/C (endpoint: mean survival time, dose: 12.5 mg/kg/injection, schedule: Q04DX003 (ip), vehicle: saline with Tween-80) was 109 % of control and the T/C (endpoint: mean survival time, dose: 25.0 mg/kg/injection, schedule: Q04DX002 (ip), vehicle: saline with Tween-80) was 93 % of control. For the same compound, the T/C (endpoint: mean survival time, dose: 25.0 mg/kg/injection, schedule: Q04DX003 (ip), vehicle: saline with Tween-80) was 98 % of control.
`COc1ccc(COC2C(O)C(CO)OC2n2cnc3c(N)ncnc32)cc1` (stereo not given) was tested, and the T/C (endpoint: mean survival time, dose: 100.0 mg/kg/injection, schedule: Q01DX005 (ip), vehicle: saline) was 92 % of control and the T/C (endpoint: mean survival time, dose: 200.0 mg/kg/injection, schedule: Q01DX005 (ip), vehicle: saline) was 94 % of control.
`Cc1cc(O)c(C(N)=O)c(=O)[nH]1` was tested, and the T/C [1] was 95 % of control, the T/C [2] was 98 % of control and the T/C (endpoint: mean survival time, dose: 400.0 mg/kg/injection, schedule: Q01DX001 (ip), vehicle: saline) was 101 % of control.
With `CC(N)CCC(O)C(=O)O` (stereo not given) the T/C (endpoint: mean survival time, dose: 100.0 mg/kg/injection, schedule: Q04DX002 (ip), vehicle: saline) was 95 % of control, the T/C (endpoint: mean survival time, dose: 200.0 mg/kg/injection, schedule: Q04DX002 (ip), vehicle: saline) was 100 % of control and the T/C (endpoint: mean survival time, dose: 400.0 mg/kg/injection, schedule: Q04DX002 (ip), vehicle: saline) was 107 % of control.
`O=[N+]([O-])c1ccc(C=Nc2ccc(OCc3ccccc3)cc2)s1` was tested, and the T/C [3] was 91 % of control, the T/C [4] was 88 % of control and the T/C [5] was 91 % of control.
`O/N=C(\c1ccccc1)C1C(/C(=N/O)c2ccccc2)C1c1ccccc1` (stereo not given) was tested, and the T/C [6] was 88 % of control and the T/C [7] was 88 % of control.
In the case of `NN(CC(=O)O)c1ccccc1`, the T/C (endpoint: mean survival time, dose: 100.0 mg/kg/injection, schedule: Q01DX009 (ip), vehicle: saline with Tween-80) was 100 % of control, the T/C (endpoint: mean survival time, dose: 200.0 mg/kg/injection, schedule: Q01DX009 (ip), vehicle: saline with Tween-80) was 105 % of control and the T/C (endpoint: mean survival time, dose: 400.0 mg/kg/injection, schedule: Q01DX009 (ip), vehicle: saline with Tween-80) was 94 % of control.
In the case of `COc1ccc(OC)c(NC(=O)Oc2cc(C)c(Cl)c(C)c2)c1`, the T/C [6] was 93 % of control, the T/C (endpoint: mean survival time, dose: 200.0 mg/kg/injection, schedule: Q04DX002 (ip), vehicle: saline with Tween-80) was 96 % of control and the T/C [7] was 101 % of control.
`COc1ccc(-n2c(=O)c(N=Nc3ccccc3C)c(O)n(-c3ccc(Br)cc3)c2=S)cc1` was tested, and the T/C (endpoint: mean survival time, dose: 37.5 mg/kg/injection, schedule: Q01DX001 (ip), vehicle: Klucel (hydroxypropylcellulose) (HPC)) was 94 % of control, the T/C (endpoint: mean survival time, dose: 75.0 mg/kg/injection, schedule: Q01DX001 (ip), vehicle: Klucel (hydroxypropylcellulose) (HPC)) was 92 % of control and the T/C (endpoint: mean survival time, dose: 150.0 mg/kg/injection, schedule: Q01DX001 (ip), vehicle: Klucel (hydroxypropylcellulose) (HPC)) was 105 % of control.
With `CC(C)CN(C)/N=N/c1nc[nH]c1C(N)=O` the T/C (endpoint: mean survival time, dose: 33.0 mg/kg/injection, schedule: Q01DX009 (ip), vehicle: carboxymethylcellulose (CMC)) was 114 % of control, the T/C (endpoint: mean survival time, dose: 37.0 mg/kg/injection, schedule: Q01DX Z (ip), vehicle: carboxymethylcellulose (CMC)) was 170 % of control and the T/C (endpoint: mean survival time, dose: 50.0 mg/kg/injection, schedule: Q01DX Z (ip), vehicle: carboxymethylcellulose (CMC)) was 156 % of control. The T/C (endpoint: mean survival time, dose: 75.0 mg/kg/injection, schedule: Q01DX Z (ip), vehicle: carboxymethylcellulose (CMC)) was 167 % of control, the T/C (endpoint: mean survival time, dose: 80.0 mg/kg/injection, schedule: Q01DX015 (ip), vehicle: carboxymethylcellulose (CMC)) was 109 % of control and the T/C [8] was 116 % of control. The T/C (endpoint: mean survival time, dose: 120.0 mg/kg/injection, schedule: Q01DX009 (ip), vehicle: carboxymethylcellulose (CMC)) was 86 % of control, the T/C (endpoint: mean survival time, dose: 134.0 mg/kg/injection, schedule: Q01DX001 (ip), vehicle: carboxymethylcellulose (CMC)) was 106 % of control and the T/C (endpoint: mean survival time, dose: 134.0 mg/kg/injection, schedule: Q01DX015 (ip), vehicle: carboxymethylcellulose (CMC)) was 109 % of control. For the same compound, the T/C (endpoint: mean survival time, dose: 178.0 mg/kg/injection, schedule: Q01DX001 (ip), vehicle: carboxymethylcellulose (CMC)) was 106 % of control, the T/C [9] was 122 % of control and the T/C (endpoint: mean survival time, dose: 267.0 mg/kg/injection, schedule: Q01DX001 (ip), vehicle: carboxymethylcellulose (CMC)) was 110 % of control. The T/C [10] was 151 % of control, the T/C (endpoint: median survival time, dose: 12.5 mg/kg/injection, schedule: Q01DX009 (ip), vehicle: steriod suspending solution) was 122 % of control and the T/C (endpoint: median survival time, dose: 25.0 mg/kg/injection, schedule: Q01DX009 (ip), vehicle: steriod suspending solution) was 111 % of control. For the same compound, the T/C (endpoint: median survival time, dose: 50.0 mg/kg/injection, schedule: Q01DX011 (ip), vehicle: steriod suspending solution) was 175 % of control, the T/C (endpoint: median survival time, dose: 100.0 mg/kg/injection, schedule: Q01DX009 (ip), vehicle: steriod suspending solution) was 155 % of control and the T/C (endpoint: median survival time, dose: 100.0 mg/kg/injection, schedule: Q01DX011 (ip), vehicle: steriod suspending solution) was 168 % of control.
For `Cc1cc(C)c(C)c(Br)c1C`, the T/C [11] was 92 % of control, the T/C [3] was 104 % of control and the T/C [12] was 92 % of control. The T/C [4] was 112 % of control, the T/C [13] was 86 % of control and the T/C [5] was 101 % of control.
`CC[n+]1cc(-c2ccc(NC(=O)/C=C\c3ccc(C(=O)Nc4ccc(-c5c[n+](CC)c(N)nc5N)cc4)cc3)cc2)c(N)nc1N` was tested, and the T/C (endpoint: mean survival time, dose: 2.7 mg/kg/injection, schedule: Q01DX015 (ip), vehicle: saline) was 156 % of control, the T/C (endpoint: mean survival time, dose: 6.2 mg/kg/injection, schedule: Q01DX015 (ip), vehicle: saline) was 153 % of control and the T/C (endpoint: mean survival time, dose: 9.3 mg/kg/injection, schedule: Q01DX015 (ip), vehicle: saline) was 152 % of control. For the same compound, the T/C (endpoint: mean survival time, dose: 14.0 mg/kg/injection, schedule: Q01DX015 (ip), vehicle: saline) was 201 % of control, the T/C (endpoint: mean survival time, dose: 22.0 mg/kg/injection, schedule: Q01DX015 (ip), vehicle: saline) was 207 % of control and the T/C (endpoint: mean survival time, dose: 45.0 mg/kg/injection, schedule: Q01DX001 (ip), vehicle: saline) was 101 % of control. The T/C (endpoint: mean survival time, dose: 70.0 mg/kg/injection, schedule: Q01DX001 (ip), vehicle: saline) was 188 % of control, the T/C [1] was 225 % of control and 248 % of control and the T/C (endpoint: mean survival time, dose: 150.0 mg/kg/injection, schedule: Q01DX001 (ip), vehicle: saline) was 107 % of control. For the same compound, the T/C [2] was 105 % of control and the T/C (endpoint: mean survival time, dose: 155.0 micrograms/kg/injection, schedule: Q01DX009 (ip), vehicle: saline) was 121 % of control.
`COc1cc(OC)c(NC(=O)c2c(Br)c(Br)c(Br)c(Br)c2C(=O)O)cc1Cl` was tested, and the T/C [11] was 107 % of control, the T/C [12] was 94 % of control and the T/C [13] was 95 % of control.
With `Oc1ccc(C=NCCN=Cc2ccc(O)cc2O)c(O)c1` the T/C (endpoint: mean survival time, dose: 8.0 mg/kg/injection, schedule: Q01DX009 (ip), vehicle: saline with Tween-80) was 87 % of control and the T/C (endpoint: mean survival time, dose: 12.0 mg/kg/injection, schedule: Q01DX009 (ip), vehicle: saline with Tween-80) was 89 % of control.
For `CC(=O)n1ncc2ccc([N+](=O)[O-])cc21`, the T/C (endpoint: mean survival time, dose: 100.0 mg/kg/injection, schedule: Q01DX009 (ip), vehicle: water) was 105 % of control, the T/C (endpoint: mean survival time, dose: 100.0 mg/kg/injection, schedule: Q04DX003 (ip), vehicle: water) was 93 % of control and the T/C (endpoint: mean survival time, dose: 200.0 mg/kg/injection, schedule: Q01DX009 (ip), vehicle: water) was 105 % of control. For the same compound, the T/C (endpoint: mean survival time, dose: 200.0 mg/kg/injection, schedule: Q04DX003 (ip), vehicle: water) was 100 % of control, the T/C (endpoint: mean survival time, dose: 400.0 mg/kg/injection, schedule: Q01DX009 (ip), vehicle: water) was 107 % of control and the T/C (endpoint: mean survival time, dose: 400.0 mg/kg/injection, schedule: Q04DX003 (ip), vehicle: water) was 96 % of control.
In the case of `BrCCN(CCBr)c1ccc2c3c(cccc13)-c1ccccc1-2`, the T/C (endpoint: mean survival time, dose: 0.3 mg/kg/injection, schedule: Q01DX Z (ip), vehicle: other) was 117 % of control, the T/C (endpoint: mean survival time, dose: 0.7 mg/kg/injection, schedule: Q01DX Z (ip), vehicle: other) was 120 % of control and the T/C (endpoint: mean survival time, dose: 1.5 mg/kg/injection, schedule: Q01DX Z (ip), vehicle: other) was 123 % of control. The T/C (endpoint: mean survival time, dose: 6.25 mg/kg/injection, schedule: Q01DX009 (ip), vehicle: acetone) was 112 % of control, the T/C (endpoint: mean survival time, dose: 7.5 mg/kg/injection, schedule: Q01DX Z (ip), vehicle: other) was 101 % of control and the T/C (endpoint: mean survival time, dose: 11.0 mg/kg/injection, schedule: Q01DX Z (ip), vehicle: other) was 112 % of control. The T/C (endpoint: mean survival time, dose: 50.0 mg/kg/injection, schedule: Q01DX001 (ip), vehicle: carboxymethylcellulose (CMC)) was 124 % of control, the T/C [8] was 114 % of control and the T/C (endpoint: mean survival time, dose: 100.0 mg/kg/injection, schedule: Q04DX003 (ip), vehicle: saline) was 120 % of control. The T/C [9] was 124 % of control and the T/C [10] was 120 % of control.
With `CSc1nc(F)nc2c1ncn2C1OC(CO)C(O)C1O` (stereo not given) the T/C [1] was 88 % of control and the T/C [2] was 100 % of control.
